From patent US12540129B2, “KIF18A inhibitors” (AMGEN INC., priority 2019, dated 2026) come the findings set out here.

The term pIC50 denotes the negative decadic logarithm of the IC50, by convention in mol/L.

pIC50: −log10 of the molar value.

This assay deals with T1, Recombinant human KIF18A (1-467 His-tagged) protein (Homo sapiens, UniProt Q8NI77).
T1 construct: Recombinant human KIF18A (1-467 His-tagged) protein; His; made in house
T1 sequence (Q8NI77 1-467): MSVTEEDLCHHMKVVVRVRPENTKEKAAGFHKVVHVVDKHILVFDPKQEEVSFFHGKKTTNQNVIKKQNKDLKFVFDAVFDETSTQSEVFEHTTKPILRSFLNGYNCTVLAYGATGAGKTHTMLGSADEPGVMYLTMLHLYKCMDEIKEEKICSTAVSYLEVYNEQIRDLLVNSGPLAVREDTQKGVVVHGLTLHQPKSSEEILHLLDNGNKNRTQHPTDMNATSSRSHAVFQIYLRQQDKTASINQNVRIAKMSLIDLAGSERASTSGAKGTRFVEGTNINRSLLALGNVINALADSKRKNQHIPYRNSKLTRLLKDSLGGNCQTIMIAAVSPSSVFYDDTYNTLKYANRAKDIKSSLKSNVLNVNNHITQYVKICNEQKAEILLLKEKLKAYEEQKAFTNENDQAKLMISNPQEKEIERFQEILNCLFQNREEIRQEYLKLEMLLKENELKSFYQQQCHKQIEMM
T1 sequence (P02550 whole entry partner): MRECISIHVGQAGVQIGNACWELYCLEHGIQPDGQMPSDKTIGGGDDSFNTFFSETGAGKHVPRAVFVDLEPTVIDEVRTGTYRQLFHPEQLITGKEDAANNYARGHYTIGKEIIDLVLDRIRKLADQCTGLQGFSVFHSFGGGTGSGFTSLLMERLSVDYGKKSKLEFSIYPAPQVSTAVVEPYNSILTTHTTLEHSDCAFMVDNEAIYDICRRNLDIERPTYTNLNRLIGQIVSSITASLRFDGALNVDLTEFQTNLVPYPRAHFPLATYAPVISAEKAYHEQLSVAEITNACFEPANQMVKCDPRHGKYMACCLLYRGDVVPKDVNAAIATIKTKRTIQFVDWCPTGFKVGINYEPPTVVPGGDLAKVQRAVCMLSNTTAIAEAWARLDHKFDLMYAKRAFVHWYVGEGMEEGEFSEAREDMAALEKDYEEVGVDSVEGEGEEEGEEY
T1 sequence (P02554 whole entry partner): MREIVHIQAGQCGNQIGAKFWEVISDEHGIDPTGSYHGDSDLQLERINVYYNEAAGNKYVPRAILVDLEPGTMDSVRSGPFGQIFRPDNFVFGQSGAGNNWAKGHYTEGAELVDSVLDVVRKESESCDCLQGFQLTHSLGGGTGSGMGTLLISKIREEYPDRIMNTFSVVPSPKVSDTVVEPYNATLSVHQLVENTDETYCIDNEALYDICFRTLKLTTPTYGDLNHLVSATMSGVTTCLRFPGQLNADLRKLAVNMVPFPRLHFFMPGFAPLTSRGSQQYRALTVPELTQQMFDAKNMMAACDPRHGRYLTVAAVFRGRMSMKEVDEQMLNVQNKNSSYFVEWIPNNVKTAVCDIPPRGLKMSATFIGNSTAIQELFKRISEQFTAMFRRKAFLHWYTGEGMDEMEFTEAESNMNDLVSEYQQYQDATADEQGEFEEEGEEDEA
Nature of the assay: KIF18A Enzyme Assay: microtubule-stimulated ATPase activity (ADP-Glo). The assay is classed as biochemical. The following applies: 30 nM KIF18A, 75 μM ATP. Summed up:
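ADP-Glo luminescence reports ADP produced by His-tagged human KIF18A motor domain (1-467, insect-cell expressed) with microtubules and ATP.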
A general note: In ADP-Glo the light output rises with the ADP produced.
In the case of `CC(C)(C)NS(=O)(=O)c1cccc(NC(=O)c2ccc(NC3CCC3)nc2N2CCC3(CC2)CC3)c1` [Example 102-16, N-(3-(N-(tert-butyl)sulfamoyl)phenyl)-6-(cyclobutylamino)-2-(6-azaspiro[2.5]octan-6-yl)nicotinamide], the pIC50 was 6.66.

Take `O=C(Nc1cccc(S(=O)(=O)NC2CC2)c1)c1cccnc1N1CCC2(CC1)CC2` [Example 101, N-(3-(N-cyclopropylsulfamoyl)phenyl)-2-(6-azaspiro[2.5]octan-6-yl)nicotinamide]: the pIC50 is 6.29.

Regarding `C[C@@H]1CN(c2cc(NC(=O)c3ccc(NC(C)(C)CO)nc3N3CCC4(CC3)CC4)ccc2F)CCO1` [Example 105-31, (R)-N-(4-fluoro-3-(2-methylmorpholino)phenyl)-6-((1-hydroxy-2-methylpropan-2-yl)amino)-2-(6-azaspiro[2.5]octan-6-yl)nicotinamide], the pIC50 is 6.70.

As for `CC(C)(C)NS(=O)(=O)c1cccc(NC(=O)c2ccc(N3C[C@H]4C[C@H]4C3)nc2N2CCC3(CC2)CC3)c1` [Example 102-5], the pIC50 is 6.72.

As to `CC(C)(C)NS(=O)(=O)c1cccc(NC(=O)c2ccc(N[C@H]3CC[C@H](O)C3)nc2N2CCC3(CC2)CC3)c1` [Example 102-23, N-(3-(N-(tert-butyl)sulfamoyl)phenyl)-6-(((1S,3S)-3-hydroxycyclopentyl)amino)-2-(6-azaspiro[2.5]octan-6-yl)nicotinamide], the pIC50 was 6.73.

For the molecule `Cc1ccc(NC(=O)c2ccc(NC(C)(C)CO)nc2N2CCC3(CC2)CC3)cc1N1CCOCC1` [Example 105-30, 6-((1-hydroxy-2-methylpropan-2-yl)amino)-N-(4-methyl-3-morpholinophenyl)-2-(6-azaspiro[2.5]octan-6-yl)nicotinamide], the pIC50 was 6.58.

Regarding `O=C(Nc1cccc(S(=O)(=O)C2CCCC2)c1)c1ccc(NC2(CCO)CC2)nc1N1CCC2(CC1)CC2` [Example 103-19, N-(3-(cyclopentylsulfonyl)phenyl)-6-((1-(2-hydroxyethyl)cyclopropyl)amino)-2-(6-azaspiro[2.5]octan-6-yl)nicotinamide], the negative-log IC50 (pIC50) is 7.26.

As to `CC(C)(C)NS(=O)(=O)c1cccc(NC(=O)c2ccc(N[C@H]3C[C@@H](O)C3)nc2N2CCC3(CC2)CC3)c1` [Example 102-29, N-(3-(N-(tert-butyl)sulfamoyl)phenyl)-6-(((1S,3S)-3-hydroxycyclobutyl)amino)-2-(6-azaspiro[2.5]octan-6-yl)nicotinamide], the pIC50 was 7.01.

For the molecule `CC(C)(C)NS(=O)(=O)c1cccc(NC(=O)c2ccc(N3CC[C@@H]4C[C@@H]43)nc2N2CCC3(CC2)CC3)c1` [Example 102-6, 6-((1S,5R)-2-azabicyclo[3.1.0]hexan-2-yl)-N-(3-(N-(tert-butyl)sulfamoyl)phenyl)-2-(6-azaspiro[2.5]octan-6-yl)nicotinamide], the pIC50 is 6.70.

For the molecule `CC(C)(CO)Nc1ccc(C(=O)Nc2cccc(S(=O)(=O)C3CCC3)c2)c(N2CCC3(CC2)CC3)n1` [Example 105-6, N-(3-(cyclobutylsulfonyl)phenyl)-6-((1-hydroxy-2-methylpropan-2-yl)amino)-2-(6-azaspiro[2.5]octan-6-yl)nicotinamide], the pIC50 was 7.55.

Consider `Cc1ccc(NC(=O)c2ccc(NC(C)(C)CO)nc2N2CCC3(CC2)CC3)cc1S(=O)(=O)C1CCCC1` [Example 105-8, N-(3-(cyclopentylsulfonyl)-4-methylphenyl)-6-((1-hydroxy-2-methylpropan-2-yl)amino)-2-(6-azaspiro[2.5]octan-6-yl)nicotinamide], for which the pIC50 was 7.26.

As for `CC(C)(C)Nc1ccc(C(=O)Nc2cccc(S(=O)(=O)C3CCCC3)c2)c(N2CCC3(CC2)CC3)n1` [Example 103-3, 6-(tert-butylamino)-N-(3-(cyclopentylsulfonyl)phenyl)-2-(6-azaspiro[2.5]octan-6-yl)nicotinamide], the pIC50 was 7.05.

For `CC(C)(C)NS(=O)(=O)c1cccc(NC(=O)c2ccc(N3CC[C@H]4CC[C@@H]3O4)nc2N2CCC3(CC2)CC3)c1` [Example 102-9, 6-((1S,5R)-8-oxa-2-azabicyclo[3.2.1]octan-2-yl)-N-(3-(N-(tert-butyl)sulfamoyl)phenyl)-2-(6-azaspiro[2.5]octan-6-yl)nicotinamide], the pIC50 is 6.90.

Regarding `CC(C)(C)NS(=O)(=O)c1cc(F)cc(NC(=O)c2ccc(NC(C)(C)CO)nc2N2CCC3(CC2)CC3)c1` [Example 105-21, N-(3-(N-(tert-butyl)sulfamoyl)-5-fluorophenyl)-6-((1-hydroxy-2-methylpropan-2-yl)amino)-2-(6-azaspiro[2.5]octan-6-yl)nicotinamide], the pIC50 is 6.97.

On to `O=C(Nc1cccc(S(=O)(=O)Nc2ccc(F)cc2)c1)c1cccnc1N1CCC2(CC1)CC2` [Example 101-10, N-(3-(N-(4-fluorophenyl)sulfamoyl)phenyl)-2-(6-azaspiro[2.5]octan-6-yl)nicotinamide], for which the pIC50 was 6.41.

Regarding `CN(C)CCNc1ccc(C(=O)Nc2cccc(S(=O)(=O)C3CCCC3)c2)c(N2CCC3(CC2)CC3)n1` [Example 103-22, N-(3-(cyclopentylsulfonyl)phenyl)-6-((2-(dimethylamino)ethyl)amino)-2-(6-azaspiro[2.5]octan-6-yl)nicotinamide], the pIC50 was 6.17.

`O=C(Nc1cccc(S(=O)(=O)C2CCCC2)c1)c1cccnc1N1CCC2(CC1)CC2` [Example 100-14, N-(3-(cyclopentylsulfonyl)phenyl)-2-(6-azaspiro[2.5]octan-6-yl)nicotinamide]: the pIC50 was 6.54.

With `CCCC1CCN(c2ncccc2C(=O)Nc2cccc(S(=O)(=O)N3CCCCC3)c2)CC1` [Example 100-3, N-(3-(piperidin-1-ylsulfonyl)phenyl)-2-(4-propylpiperidin-1-yl)nicotinamide], the pIC50 was 6.18.

For the molecule `Cc1coc(-c2cccc(NC(=O)c3ccc(NC(C)(C)CO)nc3N3CCC4(CC3)CC4)c2)n1` [Example 111-5, 6-((1-hydroxy-2-methylpropan-2-yl)amino)-N-(3-(4-methyloxazol-2-yl)phenyl)-2-(6-azaspiro[2.5]octan-6-yl)nicotinamide], the pIC50 was 6.65.

For the molecule `O=C(Nc1cccc(S(=O)(=O)C2CCCC2)c1)c1ccc(N2CC(CO)C2)nc1N1CCC2(CC1)CC2` [Example 103-20, N-(3-(cyclopentylsulfonyl)phenyl)-6-(3-(hydroxymethyl)azetidin-1-yl)-2-(6-azaspiro[2.5]octan-6-yl)nicotinamide], the pIC50 was 6.85.

Regarding `CC(C)(C)NS(=O)(=O)c1cccc(NC(=O)c2ccc([C@](C)(O)CO)nc2N2CCC3(CC2)CC3)c1` (single isomer, unassigned) [Example 109-1], the pIC50 was 7.06.

With `O=C(Nc1cccc(S(=O)(=O)C2CCCC2)c1)c1ccc(N[C@H]2CCOC2)nc1N1CCC2(CC1)CC2` [Example 103-16, (S)-N-(3-(cyclopentylsulfonyl)phenyl)-2-(6-azaspiro[2.5]octan-6-yl)-6-((tetrahydrofuran-3-yl)amino)nicotinamide], the pIC50 is 6.94.

Take `CC(C)(C)NS(=O)(=O)c1cccc(NC(=O)c2ccc(N3CCCC3(C)C)nc2N2CCC3(CC2)CC3)c1` [Example 102-3, N-(3-(N-(tert-butyl)sulfamoyl)phenyl)-6-(2,2-dimethylpyrrolidin-1-yl)-2-(6-azaspiro[2.5]octan-6-yl)nicotinamide]: the pIC50 was 6.47.

On to `O=C(Nc1cccc(S(=O)(=O)C2CCCC2)c1)c1ccc(NCCO)nc1N1CCC2(CCC2)CC1` [Example 103-24, N-(3-(cyclopentylsulfonyl)phenyl)-6-((2-hydroxyethyl)amino)-2-(7-azaspiro[3.5]nonan-7-yl)nicotinamide], for which the pIC50 is 7.44.

On to `CC(C)(CCO)Nc1ccc(C(=O)Nc2cccc(S(=O)(=O)C3CCCC3)c2)c(N2CCC3(CC2)CC3)n1` [Example 103-7, N-(3-(cyclopentylsulfonyl)phenyl)-6-((4-hydroxy-2-methylbutan-2-yl)amino)-2-(6-azaspiro[2.5]octan-6-yl)nicotinamide], for which the pIC50 was 7.33.

In the case of `Cc1ccc(NC(=O)c2cccnc2N2CCC3(CC2)CC3)cc1S(=O)(=O)NC1CC1` [Example 100-13, N-(3-(N-cyclopropylsulfamoyl)-4-methylphenyl)-2-(6-azaspiro[2.5]octan-6-yl)nicotinamide], the pIC50 is 6.15.

As for `O=C(Nc1cccc(C(=O)N2CCCC(F)(F)C2)c1)c1ccncc1N1CCC2(CC1)CC2` [Example 115-5, N-(3-(3,3-difluoropiperidine-1-carbonyl)phenyl)-3-(6-azaspiro[2.5]octan-6-yl)isonicotinamide], the pIC50 was 5.77.

For the molecule `O=C(Nc1cccc(S(=O)(=O)C2CCCC2)c1)c1ccc(NC(CO)CO)nc1N1CCC2(CC1)CC2` [Example 106, N-(3-(Cyclopentylsulfonyl)phenyl)-6-((1,3-dihydroxypropan-2-yl)amino)-2-(6-azaspiro[2.5]octan-6-yl)nicotinamide], the pIC50 is 7.27.

Take `CC(C)(C)NS(=O)(=O)c1cccc(NC(=O)c2ccc(N[C@@H]3CC[C@H](O)C3)nc2N2CCC3(CC2)CC3)c1` [Example 102-22, N-(3-(N-(tert-butyl)sulfamoyl)phenyl)-6-(((1R,3S)-3-hydroxycyclopentyl)amino)-2-(6-azaspiro[2.5]octan-6-yl)nicotinamide]: the pIC50 was 6.94.

Turning to `CC(C)(C)NS(=O)(=O)c1cccc(NC(=O)c2ccc(CS(C)(=O)=O)nc2N2CCC3(CC2)CC3)c1` [Example 113, N-(3-(N-(tert-butyl)sulfamoyl)phenyl)-6-((methylsulfonyl)methyl)-2-(6-azaspiro[2.5]octan-6-yl)nicotinamide], the pIC50 was 6.99.

Turning to `CC(CO)(CO)Nc1ccc(C(=O)Nc2cccc(S(=O)(=O)C3CCCC3)c2)c(N2CCC3(CC2)CC3)n1` [Example 106-3, N-(3-(cyclopentylsulfonyl)phenyl)-6-((1,3-dihydroxy-2-methylpropan-2-yl)amino)-2-(6-azaspiro[2.5]octan-6-yl)nicotinamide], the pIC50 is 7.41.
